According to EP0262785A1, “N-[2-(4-carboxymethoxyphenyl)-1-methylethyl]-2-hydroxy-2-(3-chlorophenyl)ethane amine, the methyl ester, salt and stereoisomeric forms thereof” (BEECHAM GROUP PLC, priority 1986, dated 1988):

Tests used:
Female CFLP mice = assay: Anti-hyperglycaemic activity (subcutaneous glucose load, blood glucose curve); type: in vivo; conditions: Dose 0.02 µmol/kg orally as aqueous solution, 6 mice fasted for 24 hours; glucose 1g/kg subcutaneously 30 minutes later; area over the 2 hour period compared with control mice given water
Experimental: Female CFLP mice, weighing approximately 25 g, were fasted for 24 hours prior to the study. The compound under study was administered orally as an aqueous solution to each of 6 mice. 30 minutes later a blood sample (10µl) was obtained from the tail for the analysis of blood glucose. Immediately after taking this blood sample, glucose (1g/kg body weight) was administered subcutaneously to each mouse. 6 mice were given water as a control. Blood samples were then obtained from each mouse at 30 minute intervals for 120 minutes. Compounds that produce a significant (P<0.05) reduction of blood glucose, compared with control mice given water, at any time interval, are considered active. The area under the blood glucose curve over the 2 hour period after the administration of the glucose was calculated for the compound and compared with the value for control animals.

Male Sprague-Dawley rats = assay: Effect on Energy Expenditure of Rats; type: in vivo; conditions: Dose 0.2 µmol/kg p.o. in water, rats deprived of food, percentage of the rate of energy expenditure of the rats dosed with water
Experimental: Water was provided ad lib at all times. The compounds were administered orally in water to 3 or 4 rats. A further 4 rats were dosed orally with water. The rats were placed in boxes through which air was drawn and the oxygen content of the air leaving the boxes was measured. The energy expenditure of the rats was calculated for 3 hours and for 21 hours after dosing from the volume of air leaving the boxes and its oxygen content, following the principles described by J.B. de V. Weir, J. Physiol. (London) 109, 1-9 (1949). The results are expressed as a percentage of the rate of energy expenditure of the rats dosed with water.

SMILES: COC(=O)COc1ccc(C[C@@H](C)NC[C@H](O)c2cccc(Cl)c2)cc1 [Example 1, N-[2-(4-Carbomethoxymethoxyphenyl)-1-(R)-1-methylethyl-2-(R)-2-hydroxy-2-(3-chlorophenyl)ethananine, hemifumarate]
- % Reduction in area under Blood Glucose Curve (Female CFLP mice): 51%
- Mean Energy Expenditure (0-3h) (Male Sprague-Dawley rats; 3 hours after dosing): 134 percentage
- Mean Energy Expenditure (0-21h) (Male Sprague-Dawley rats; 21 hours after dosing): 111 percentage
